Laboratory results as given in patent US4151350A, “Poly-5-hydroxycytidylic acid copolymers” (priority 1976, dated 1979).

Experiments:
[1] = Acute toxicity (LD50), intraperitoneal, mice (Example 6, Table 4); type: in vivo, 6 week old female albino mice; details: i.p.; for Estimated LD50 dose: mice
Text: The toxicity of these mixtures (LD50) are compared with the toxicity of poly I alone and the double-stranded complex between poly I and poly C (poly I:C). The mixtures contained poly ho^5 C containing 62% ho^5 CMP and 38% br^5 CMP obtained by bromine water treatment of poly C as described in example 1. Some of this material was frozen in the absence of salt to produce a gelled material when thawed. This material was homogenised and mixed with an equal weight of poly I and then administered intraperitoneally to the mice. Some of the poly ho^5 C is kept unfrozen and mixed with poly I and then administered intraperitoneally to the mice.
Poly I:C was made up in HBS at 5mg. 8mg, 10mgs and 13mg/ml and 0.1ml
injected per mouse to give the total doses shown.
Poly I was made up in HBS at 12mg/ml and appropriate volumes administered
to give the final doses indicated.
in HBS to a total polynucleotide concentration of 12mg/ml and appropriate
volumes administered to give the final doses indicated.
No deaths occurred after 7 days (records maintained 2 months) and mean

[2] = particularly by virtue of its ability to induce interferon; cited from earlier work

Substance	Survival of mice per group ([1]; 8 mg total polynucleotides)	Survival of mice per group ([1]; 12 mg total polynucleotides)	Survival of mice per group ([1]; 16 mg total polynucleotides)	Survival of mice per group ([1]; 24 mg total polynucleotides)	Estimated LD50 dose [1]	Estimated LD50 dose ([1]; mean weight 23 g)	Survival of mice per group ([1]; 0.5 mg total polynucleotides)	Survival of mice per group ([1]; 0.8 mg total polynucleotides)	Survival of mice per group ([1]; 1.0 mg total polynucleotides)	Survival of mice per group ([1]; 1.3 mg total polynucleotides)	anti-viral effects [2]
polyinosinic acid [poly I]	5/6	5/6	3/6	1/6	16 mg/mouse	695 mg/kilogram					
poly I:C					1.1 mg/mouse	48 mg/kilogram	10/10	8/10	6/10	0/10	known to have anti-viral effects
